Experimental data: patent publication US20260306460A1, “COMPOSITION FOR REMOVING AND INHIBITING SENESCENT CELLS, AND USES THEREOF” (LIFECEUTIX CO., LTD., priority 2023, published 2026)
Where two headings read alike, the source gives them in different places.

Key:
[1] = system: doxorubicin-induced aged C57BL6J mice; assay: Hair loss area in doxorubicin-aged mice, Example 22-11, Table 40; format: in vivo, mouse
Experimental: Eight-week-old male C57BL6J mice (KRIBB Laboratory Animal Resource Center) were acclimated to the experimental environment for one week. Afterwards, the anticancer agent doxorubicin was administered intraperitoneally at a concentration of 10 mg/kg, inducing aging for more than 10 days. The aging-induced mice were randomly assigned to experimental and control groups. LX-403 was mixed with a 10% ethanol solution of PEG400 and administered orally at a concentration of 25 mg/kg or intradermally at a concentration of 1 μM for 21 days. LX-1801 was mixed in distilled water with 4% DMSO, 30% PEG300, and 5% Tween80 and administered intradermally at a concentration of 0.4 μM daily for 21 days. LX-2001 was mixed in PBS and administered intradermally at a concentration of 2 μM daily for 21 days. LX-2002 was mixed in distilled water with 4% DMSO, 30% PEG300, and 5% Tween80 and administered intradermally at a concentration of 2 μM daily for 21 days. […] LX-2005 was mixed in distilled water with 4% DMSO, 30% PEG300, and 5% Tween80 and administered intradermally at a concentration of 90 μM daily for 21 days. LX-2007 was mixed in distilled water with 4% DMSO, 30% PEG300, and 5% Tween80 and administered intradermally at a concentration of 90 μM daily for 21 days. […] LX-3002 was mixed in distilled water with 4% DMSO, 30% PEG300, and 5% Tween80 and administered orally at a concentration of 10 mg/kg daily for 21 days. […] LX-5411 was mixed in 5% phosphate-buffered saline (PBS) and administered orally at a concentration of 10 mg/kg daily for 21 days or intradermally at a concentration of 3 μM. LX-5701 was mixed in PBS and administered orally at a concentration of 360 mg/kg daily for 21 days. LX-6807 was mixed in saline and administered intraperitoneally at a concentration of 1 mg/kg daily for 21 days. The control group received only the solution in the same volume. After the end of drug administration, the methods described in each example below were performed.
Alopecia is one of the most troubling side effects of chemotherapy, for which there is currently no treatment. Hair loss in mice induced to age by the anticancer drug was quantified using imaging software such as ImageJ (NIH) from digital photographs taken using a fixed camera position and magnification.

[2] = system: carbon tetrachloride-induced liver fibrosis mice; assay: Carbon tetrachloride-induced liver fibrosis mice, Example 31, Table 57; format: in vivo, mouse; details: CCl4-induced liver fibrosis mice, untreated = 100%
Summary of the method: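 Mice with induced hepatic fibrosis received either the test compound or, as controls, an equal volume of vehicle solution alone. Once dosing ended, liver tissue was harvested and total RNA was isolated. cDNA was synthesized from this RNA, and quantitative RT-PCR was run on it to measure hepatic mRNA levels of the fibrosis- and senescence-related genes.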

[3] = system: obesity-induced aged C57BL6J mice; assay: Anxiety, depression, lethargy (open field test) in obesity-aged mice, Example 23-4, Table 44; format: in vivo, mouse; details: for geriatric depression: obesity-aged mice; for Open Field Test Time in Center: obesity-induced aged mice, daily for 21 days, activity after obesity-induced aging calculated as 100%
Summary of the method: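 Male C57BL6J mice were made obese on a high-fat diet from 15 weeks of age. Compounds were given daily for 21 days: LX-3002 10 mg/kg orally, LX-5701 360 mg/kg orally, LX-6807 1 mg/kg intraperitoneally, with vehicle-treated controls. Open-field activity was then expressed relative to obese untreated mice set at 100%.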

senescent A549 cells = assay: Viability of senescent A549 cells (CellTiter-Glo), Example 18, Table 15; details: Homo sapiens, A549, read-out: Survival (%)
Experimental: Senescence-induced cancer cells treated with doxorubicin were treated with the test compound at designated concentrations, and cell viability was measured using the CellTiter-Glo Luminescent Cell Viability Assay (Promega).

senescent cells = assay: Viability of senescent cells (CellTiter-Glo), Example 17, Table 13; details: Homo sapiens, read-out: Survival (%)
Experimental: Cells induced to undergo senescence by doxorubicin treatment were treated with test compound at designated concentrations and measured using the CellTiter-Glo Luminescent Cell Viability Assay (Promega).

[4] = doxorubicin-induced aged mice, untreated 100 (±15.4)

| Compound | Relative area of hair loss [1, 4] | Liver p16 mRNA [2] | Col1a1 mRNA [2] | geriatric depression [3] | further results |
| --- | --- | --- | --- | --- | --- |
| O=C(C(C[N+](=O)[O-])=NO)N1CCN(C(c2ccc(Cl)cc2)c2ccc(Cl)cc2)CC1 [LX-403] | 76 (±5.5) % | 51 (±3.8) % | 48 (±5.8) % |  |  |
| COC(=O)c1ccc([C@H]2c3[nH]c4ccccc4c3C[C@H](C(=O)OC)N2C(=O)CCl)cc1 [LX-405] |  |  |  | similarly improving geriatric depression |  |
| S=C(N/N=C1\CCCc2cccnc21)N1CCN(c2ccccn2)CC1 [LX-801] |  | 57 (±9.3) % | 63 (±11.5) % |  |  |
| C[C@@H]1CC[C@@]23C[C@H](O)C(=O)[C@@]2(O)[C@]1(C)[C@H](OC(=O)CCl)C[C@@H](C1=CCn2c(=O)n(-c4ccccc4)c(=O)n2C1)[C@@H]3C [LX-1801, (2S,3aS,4S,5R,7R,8S,8aS,11R)-7-(1,3-Dioxo-2-phenyl-2,3,5,8-tetrahydro-1H-[1,2,4]triazolo[1,2-a]pyridazin-6-yl)-2,3a-dihydroxy-4,8,11-trimethyl-3-oxooctahydro-1H-4,8a-propanoazulen-5-yl 2-Chloroacetate] | 78 (±5.4) % | 55 (±9.8) % | 58 (±7.9) % |  |  |
| C[C@H]1[C@H](C)CC[C@]2(C(=O)O)CC[C@]3(C)C(=CC[C@@H]4[C@@]5(C)CC[C@H](O)C(C)(C)[C@@H]5CC[C@]43C)[C@H]12 [LX-2001, Ursolic acid] | 80 (±6.9) % |  |  |  |  |
| C[C@H]1[C@H](C)CC[C@]2(C(=O)O)CC[C@]3(C)C(=CC[C@@H]4[C@@]5(C)C[C@@H](O)[C@H](O)C(C)(C)[C@@H]5CC[C@]43C)[C@H]12 [LX-2002, Corosolic acid] | 83 (±10.4) % |  |  |  |  |
| CC1(C)CC[C@]2(C(=O)O)CC[C@]3(C)C(=CC[C@@H]4[C@@]5(C)CC[C@H](O)C(C)(C)[C@@H]5CC[C@]43C)[C@@H]2C1 [LX-2003, Oleanolic acid] | 79 (±6.7) % |  |  |  |  |
| C=C(C)[C@@H]1CC[C@]2(C(=O)O)CC[C@]3(C)[C@H](CC[C@@H]4[C@@]5(C)CC[C@H](O)C(C)(C)[C@@H]5CC[C@]43C)[C@@H]12 [LX-2005, Betulinic acid] | 82 (±4.6) % |  |  |  |  |
| CC1(C)C=C2[C@H]3CC[C@@H]4[C@@]5(C)CCC(=O)C(C)(C)[C@@H]5CC[C@@]4(C)[C@]3(C)CC[C@@]2(C(=O)O)CC1 [LX-2007, Moronic acid] | 86 (±2.9) % |  |  |  |  |
| CC1(C)CC[C@]2(NC(=O)C(C)(F)F)CC[C@]3(C)[C@H](C(=O)C=C4[C@@]5(C)C=C(C#N)C(=O)C(C)(C)[C@@H]5CC[C@]43C)[C@@H]2C1 [LX-2101, Omaveloxolone] |  |  |  | similarly improving geriatric depression | Relative area of hair loss [1]: 79 (±3.9) % |
| CCCC\C=C/C=C/C=C\CCCCCCCC(=O)O [LX-2707, Punicic acid] |  |  |  | similarly improving geriatric depression | Open Field Test Time in Center [3]: 224 (±12.8) % |
| COC(=O)[C@H]1Cc2c([nH]c3ccccc23)[C@H](c2ccc(S(C)(=O)=O)cc2)N1C(=O)CCl [LX-5401, methyl (1S,3R)-2-(2-chloroacetyl)-1-(4-(methylsulfonyl)phenyl)-2,3,4,9-tetrahydro-1H-pyrido[3,4-b]indole-3-carboxylate] |  | 61 (±13.2) % | 72 (±5.9) % | similarly improving geriatric depression | viability at 1.1 µM (senescent A549 cells): 92.7%; viability at 10 µM (senescent A549 cells): 43.8%; viability at 30 µM (senescent A549 cells): 1.9%; viability at 1.1 µM (senescent cells): 99.5%; viability at 10 µM (senescent cells): 66%; viability at 30 µM (senescent cells): 24.6% |
| C#CC(=O)N1[C@@H](CCCC)Cc2cc(OC)ccc2[C@@H]1c1ccc(NC23CC4CC(CC(C4)C2)C3)cc1 [LX-5411] | 77 (±4.1) % | 53 (±9.9) % | 43 (±16.1) % | similarly improving geriatric depression | viability at 1.1 µM (senescent A549 cells): 75.4%; viability at 10 µM (senescent A549 cells): 5.3%; viability at 1.1 µM (senescent cells): 75.4%; viability at 10 µM (senescent cells): 2.8% |
| O=C1C2CCN(CC2)C1CNC(=O)C(F)(F)F (stereo not shown) [LX-5701] | 67 (±17.8) % |  |  |  | viability at 1.1 µM (senescent A549 cells): 82.3%; viability at 10 µM (senescent A549 cells): 43.8%; viability at 30 µM (senescent A549 cells): 16.2%; viability at 1.1 µM (senescent cells): 91.4%; viability at 10 µM (senescent cells): 19.3%; Open Field Test Time in Center [3]: 217 (±20.1) % |
| Cc1cccc([C@H](C)c2cnc[nH]2)c1C [LX-6807, Dexmedetomidine] | 59 (±3.2) % |  |  | similarly improving geriatric depression | viability at 1.1 µM (senescent A549 cells): 94.1%; viability at 10 µM (senescent A549 cells): 76.5%; viability at 30 µM (senescent A549 cells): 6.6%; viability at 1.1 µM (senescent cells): 95.1%; viability at 10 µM (senescent cells): 42.5%; viability at 30 µM (senescent cells): 6.9%; Open Field Test Time in Center [3]: 202 (±18.2) % |
| Tocofersolan [LX-3001] |  |  |  |  | Open Field Test Time in Center [3]: 168 (±11.9) % |
